Columns and labels:
Format in all cases: in vivo
[1] = tested on: fall panicum; test: Herbicidal activity test against upland field weeds (foliar treatment test); conditions: Panicum dichotomiflorum, 50 g ai/ha, scale 0-100
How it was run: (§1)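 Weeds were raised from seed or rootstocks in horticultural soil in a greenhouse (30±5° C., 14/10 h light/dark), then foliage was hand-sprayed with compound at 50 or 75 g a.i./ha in 50% acetone with 0.1% Tween-20. Control was scored visually 0–100 against untreated plants after 14 days, or 21 if needed.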

[2] = tested on: black nightshade; test: Herbicidal activity test against upland field weeds (soil treatment test); design: key to Soil treatment herbicidal activity, black nightshade: 0 (no control); 100 (complete control); conditions: 50 g ai/ha, scale 0 (no control) to 100 (complete control); for pest or weed control at 50 g/ha: Solanum nigrum
How it was run: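 Pre-emergence test: seeds or rootstocks were sown in fertilized sandy loam, and the next day the soil surface was sprayed with compound at 50 or 75 g a.i./ha in 50% acetone/0.1% Tween-20. Plants were grown in a greenhouse (30±5 °C, 14/10 h light/dark), then visually scored 0–100 against untreated at 14 d (21 d if needed).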

[3] = tested on: barnyard grass; test: Herbicidal activity test against upland field weeds (foliar treatment test); design: key to Foliar treatment herbicidal activity, barnyard grass: 0 (no control); 100 (complete control); conditions: 50 g ai/ha, scale 0-100; for pest or weed control at 50 g/ha: Echinochloa crus-galli
How it was run: as §1

Structure (SMILES) | pest or weed control at 50 g/ha [1] [%] | Soil treatment herbicidal activity, black nightshade [2] | Foliar treatment herbicidal activity, barnyard grass [3] | pest or weed control at 50 g/ha [3] [%] | pest or weed control at 50 g/ha [2] [%]
Cn1nnc(CSCc2nc(C(F)(F)F)ccc2C(=O)N(C(=O)c2ccccc2)c2nnnn2C)n1 [Compound No. 2-109, N-benzoyl-N-(1-methyl-1H-tetrazol-5-yl)-2-((((2-methyl-2H-tetrazol-5-yl)methyl)thio)methyl)-6-(trifluoromethyl)nicotinamide] | 95 | 100 | 100 | – | –
Cn1nnnc1NC(=O)c1ccc(C(F)(F)F)nc1OCc1nnnn1C(F)F [Compound No. 1-26, 2-((1-(difluoromethyl)-1H-tetrazol-5-yl)methoxy)-N-(1-methyl-1H-tetrazol-5-yl)-6-(trifluoromethyl)nicotinamide] | 98 | 100 | – | 95 | –
Cn1ncnc1COc1nc(C(F)(F)F)ccc1C(=O)Nc1nnnn1C [Compound No. 1-45, 2-((1-methyl-1H-1,2,4-triazol-5-yl)methoxy)-N-(1-methyl-1H-tetrazol-5-yl)-6-(trifluoromethyl)nicotinamide] | 95 | 100 | – | 95 | –
Cn1nnc(CSCc2nc(C(F)F)ccc2C(=O)Nc2nnnn2C)n1 [Compound No. 2-108, 6-(difluoromethyl)-N-(1-methyl-1H-tetrazol-5-yl)-2-((((2-methyl-2H-tetrazol-5-yl)methyl)thio)methyl)nicotinamide] | 50 | – | – | 60 | 30
Cn1nnc(COCc2nc(C(F)(F)F)ccc2C(=O)Nc2nnnn2C)n1 [Compound No. 2-59, N-(1-methyl-1H-tetrazol-5-yl)-2-(((2-methyl-2H-tetrazol-5-yl)methoxy)methyl)-6-(trifluoromethyl)nicotinamide] | 95 | 100 | 100 | – | –
Cn1nc(COCc2nc(C(F)(F)F)ccc2C(=O)Nc2nnnn2C)nc1Cl [Compound No. 2-135, 2-(((5-chloro-1-methyl-1H-1,2,4-triazol-3-yl)methoxy)methyl)-N-(1-methyl-1H-tetrazol-5-yl)-6-(trifluoromethyl)nicotinamide] | 50 | – | – | 98 | 60
CON(Cc1nnn(C)n1)c1nc(C(F)(F)F)ccc1C(=O)Nc1nnnn1C [Compound No. 2-30, 2-(methoxy((2-methyl-2H-tetrazol-5-yl)methyl)amino)-N-(1-methyl-1H-tetrazol-5-yl)-6-(trifluoromethyl)nicotinamide] | 60 | 100 | – | 95 | –
Cn1nnnc1COCc1nc(C(F)(F)F)ccc1C(=O)Nc1nnnn1C [Compound No. 1-61, N-(1-methyl-1H-tetrazol-5-yl)-2-(((1-methyl-1H-tetrazol-5-yl)methoxy)methyl)-6-(trifluoromethyl)nicotinamide] | 70 | – | – | 95 | 98
